In patent US20200407683A1, “IN VITRO IMMUNE SYNAPSE SYSTEM AND METHOD OF IN VITRO […] RESPONSE USING THE SAME” (National Pingtung University of Science and Technology, priority 2018, published 2020):

Test system: IL-2
Assay: In vitro immune synapse system, immune adjuvant immunostimulation: IL-2 level
Type: cell-based, pig
Conditions: 2 μg/well poly IC, in comparison to IL-18 (0.1 ng/well); Treg/APC system; FIG. 5; P<0.05
Method: In this Example, a commercial kit of porcine IL-2 and IL-10 was used for quantifying the IL-2 and IL-10 levels in the porcine cell supernatant. According to the steps of the specification provided in the kit, the standard liquid provided by the kit was diluted for later use, and a flow was described briefly below. Firstly, 100 μL of sample or diluted standard liquid was added into a 96-well plate and incubated for 1 hour. Next, 200 μL of biotinylated antibody reagent was added into the 96-well plate and incubated for another hour. […] Afterwards, 100 μL of stop solution was added to terminate the reaction in order to measure the absorbance. […]
Generally, the absorbance could be read by a commercial continuous spectrophotometer at a wavelength of 450/540 nm, and a standard curve was established by serially-diluted standard solution of various concentrations versus respective absorbances. Then, the cell cytokine concentration of each sample was calculated according to the regression equation of the standard curve, and a commercially statistical software (such as a SAS statistical program) was used to calculate significant difference between the means of all groups, as shown by the results of FIGS. 3A to 3B. […]

## poly-IC
  IL-2 level in the immunological synapse: significantly improve
